Assay results taken from US6525001B1, “Substituted pyrimidine and pyridine herbicides” (Mid-American Commercialization Corporation, priority 1997, dated 2003).

Assays:
Assay in all cases: Test B pre-/postemergence
Assay type in all cases: in vivo
Set-up in all cases: key: 0 is no effect; 10 is complete control
[1] = tested on: rape (Brassica napus)
Procedure, shortened: (§1)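 Compounds in a surfactant-containing, non-phytotoxic solvent blend are applied to freshly planted seed (preemergence) and, concurrently, to seedlings of 2 to 18 cm at 1–4 leaves (postemergence). Plants stay in the greenhouse twelve to sixteen days and are then scored visually from 0 (no effect) to 10 (complete control).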

[2] = tested on: purple nutsedge (Cyperus rotundus)
Procedure, shortened: as §1

[3] = tested on: velvetleaf (Abutilon theophrasti)
Procedure, shortened: as §1

[4] = tested on: crabgrass (Digitaria sanguinalis)
Procedure, shortened: as §1

[5] = tested on: momingglory (Ipomoea hederacea)
Procedure, shortened: as §1

[6] = tested on: soybean (Glycine max)
Procedure, shortened: as §1

[7] = tested on: cocklebur (Xanthium strumarium)
Procedure, shortened: as §1

[8] = tested on: bedstraw (Galium aparine)
Procedure, shortened: as §1

[9] = tested on: pigweed (Amaranthus retroflexus)
Procedure, shortened: as §1

[10] = tested on: corn (Zea mays)
Procedure, shortened: as §1

[11] = tested on: wheat (Triticum aestivum)
Procedure, shortened: as §1

[12] = tested on: giant foxtail (Setaria faberii)
Procedure, shortened: as §1

[13] = tested on: broadleaf signalgrass (Brachiaria decumbens)
Procedure, shortened: as §1

[14] = tested on: sugar beet (Beta vulgaris)
Procedure, shortened: as §1

Cc1cnc(-c2ccc(C(F)(F)F)cc2)nc1Cn1cnc(C(F)(F)F)c1 [Compound 10]
Plant response rating, Rape ([1]; Rate 62 g/ha, Postemergence): 8 | Rape plant response rating ([1]; Rate 62 g/ha, Preemergence): 3 | Plant response rating, Rape ([1]; Rate 125 g/ha, Postemergence): 9 | Rape plant response rating ([1]; Rate 125 g/ha, Preemergence): 4 | Plant response rating, Rape ([1]; Rate 250 g/ha, Postemergence): 9 | Plant response rating, Rape ([1]; Rate 250 g/ha, Preemergence): 4 | Plant response rating, Rape ([1]; Rate 500 g/ha, Postemergence): 9 | Plant response rating, Rape ([1]; Rate 500 g/ha, Preemergence): 7 | Plant response rating, Nutsedge ([2]; Rate 62 g/ha, Postemergence): 0 | Nutsedge plant response rating ([2]; Rate 62 g/ha, Preemergence): 0 | Plant response rating, Nutsedge ([2]; Rate 125 g/ha, Postemergence): 0 | Nutsedge plant response rating ([2]; Rate 125 g/ha, Preemergence): 0 | Plant response rating, Nutsedge ([2]; Rate 250 g/ha, Postemergence): 0 | Plant response rating, Nutsedge ([2]; Rate 250 g/ha, Preemergence): 0 | Plant response rating, Nutsedge ([2]; Rate 500 g/ha, Postemergence): 3 | Plant response rating, Nutsedge ([2]; Rate 500 g/ha, Preemergence): 0 | Plant response rating, Velvetleaf ([3]; Rate 62 g/ha, Postemergence): 6 | Velvetleaf plant response rating ([3]; Rate 62 g/ha, Preemergence): 5 | Plant response rating, Velvetleaf ([3]; Rate 125 g/ha, Postemergence): 7 | Velvetleaf plant response rating ([3]; Rate 125 g/ha, Preemergence): 7 | Plant response rating, Velvetleaf ([3]; Rate 250 g/ha, Postemergence): 8 | Plant response rating, Velvetleaf ([3]; Rate 250 g/ha, Preemergence): 8 | Plant response rating, Velvetleaf ([3]; Rate 500 g/ha, Postemergence): 9 | Plant response rating, Velvetleaf ([3]; Rate 500 g/ha, Preemergence): 8 | Plant response rating, Crabgrass ([4]; Rate 62 g/ha, Postemergence): 2 | Crabgrass plant response rating ([4]; Rate 62 g/ha, Preemergence): 5 | Plant response rating, Crabgrass ([4]; Rate 125 g/ha, Postemergence): 2 | Crabgrass plant response rating ([4]; Rate 125 g/ha, Preemergence): 7 | Plant response rating, Crabgrass ([4]; Rate 250 g/ha, Postemergence): 4 | Plant response rating, Crabgrass ([4]; Rate 250 g/ha, Preemergence): 9 | Plant response rating, Crabgrass ([4]; Rate 500 g/ha, Postemergence): 6 | Plant response rating, Crabgrass ([4]; Rate 500 g/ha, Preemergence): 9 | Plant response rating, Morningglory ([5]; Rate 62 g/ha, Postemergence): 5 | Morningglory plant response rating ([5]; Rate 62 g/ha, Preemergence): 2 | Plant response rating, Morningglory ([5]; Rate 125 g/ha, Postemergence): 7 | Morningglory plant response rating ([5]; Rate 125 g/ha, Preemergence): 3 | Plant response rating, Morningglory ([5]; Rate 250 g/ha, Postemergence): 7 | Plant response rating, Morningglory ([5]; Rate 250 g/ha, Preemergence): 9 | Plant response rating, Morningglory ([5]; Rate 500 g/ha, Postemergence): 9 | Plant response rating, Morningglory ([5]; Rate 500 g/ha, Preemergence): 10 | Plant response rating, Soybean ([6]; Rate 62 g/ha, Postemergence): 6 | Soybean plant response rating ([6]; Rate 62 g/ha, Preemergence): 0 | Plant response rating, Soybean ([6]; Rate 125 g/ha, Postemergence): 6 | Soybean plant response rating ([6]; Rate 125 g/ha, Preemergence): 0 | Plant response rating, Soybean ([6]; Rate 250 g/ha, Postemergence): 8 | Plant response rating, Soybean ([6]; Rate 250 g/ha, Preemergence): 1 | Plant response rating, Soybean ([6]; Rate 500 g/ha, Postemergence): 8 | Plant response rating, Soybean ([6]; Rate 500 g/ha, Preemergence): 1 | Plant response rating, Cocklebur ([7]; Rate 62 g/ha, Postemergence): 6 | Plant response rating, Cocklebur ([7]; Rate 125 g/ha, Postemergence): 8 | Plant response rating, Cocklebur ([7]; Rate 250 g/ha, Postemergence): 9 | Plant response rating, Cocklebur ([7]; Rate 250 g/ha, Preemergence): 1 | Plant response rating, Cocklebur ([7]; Rate 500 g/ha, Postemergence): 9 | Plant response rating, Cocklebur ([7]; Rate 500 g/ha, Preemergence): 3 | Plant response rating, Bedstraw ([8]; Rate 62 g/ha, Postemergence): 8 | Bedstraw plant response rating ([8]; Rate 62 g/ha, Preemergence): 3 | Plant response rating, Bedstraw ([8]; Rate 125 g/ha, Postemergence): 9 | Bedstraw plant response rating ([8]; Rate 125 g/ha, Preemergence): 7 | Plant response rating, Bedstraw ([8]; Rate 250 g/ha, Postemergence): 10 | Plant response rating, Bedstraw ([8]; Rate 250 g/ha, Preemergence): 7 | Plant response rating, Bedstraw ([8]; Rate 500 g/ha, Postemergence): 10 | Plant response rating, Bedstraw ([8]; Rate 500 g/ha, Preemergence): 10 | Plant response rating, Redroot pigweed ([9]; Rate 62 g/ha, Postemergence): 9 | Redroot pigweed plant response rating ([9]; Rate 62 g/ha, Preemergence): 3 | Plant response rating, Redroot pigweed ([9]; Rate 125 g/ha, Postemergence): 9 | Redroot pigweed plant response rating ([9]; Rate 125 g/ha, Preemergence): 6 | Plant response rating, Redroot pigweed ([9]; Rate 250 g/ha, Postemergence): 9 | Plant response rating, Redroot pigweed ([9]; Rate 250 g/ha, Preemergence): 7 | Plant response rating, Redroot pigweed ([9]; Rate 500 g/ha, Postemergence): 9 | Plant response rating, Redroot pigweed ([9]; Rate 500 g/ha, Preemergence): 7 | Plant response rating, Corn ([10]; Rate 62 g/ha, Postemergence): 2 | Corn plant response rating ([10]; Rate 62 g/ha, Preemergence): 0 | Plant response rating, Corn ([10]; Rate 125 g/ha, Postemergence): 2 | Corn plant response rating ([10]; Rate 125 g/ha, Preemergence): 0 | Plant response rating, Corn ([10]; Rate 250 g/ha, Postemergence): 3 | Plant response rating, Corn ([10]; Rate 250 g/ha, Preemergence): 0 | Plant response rating, Corn ([10]; Rate 500 g/ha, Postemergence): 3 | Plant response rating, Corn ([10]; Rate 500 g/ha, Preemergence): 1 | Plant response rating, Wheat ([11]; Rate 62 g/ha, Postemergence): 2 | Wheat plant response rating ([11]; Rate 62 g/ha, Preemergence): 0 | Plant response rating, Wheat ([11]; Rate 125 g/ha, Postemergence): 3 | Wheat plant response rating ([11]; Rate 125 g/ha, Preemergence): 0 | Plant response rating, Wheat ([11]; Rate 250 g/ha, Postemergence): 3 | Plant response rating, Wheat ([11]; Rate 250 g/ha, Preemergence): 0 | Plant response rating, Wheat ([11]; Rate 500 g/ha, Postemergence): 3 | Plant response rating, Wheat ([11]; Rate 500 g/ha, Preemergence): 1 | Plant response rating, Giant foxtail ([12]; Rate 62 g/ha, Postemergence): 2 | Giant foxtail plant response rating ([12]; Rate 62 g/ha, Preemergence): 3 | Plant response rating, Giant foxtail ([12]; Rate 125 g/ha, Postemergence): 2 | Giant foxtail plant response rating ([12]; Rate 125 g/ha, Preemergence): 7 | Plant response rating, Giant foxtail ([12]; Rate 250 g/ha, Postemergence): 4 | Plant response rating, Giant foxtail ([12]; Rate 250 g/ha, Preemergence): 8 | Plant response rating, Giant foxtail ([12]; Rate 500 g/ha, Postemergence): 5 | Plant response rating, Giant foxtail ([12]; Rate 500 g/ha, Preemergence): 9 | Plant response rating, B. signalgrass ([13]; Rate 62 g/ha, Postemergence): 2 | B. signalgrass plant response rating ([13]; Rate 62 g/ha, Preemergence): 1 | Plant response rating, B. signalgrass ([13]; Rate 125 g/ha, Postemergence): 3 | B. signalgrass plant response rating ([13]; Rate 125 g/ha, Preemergence): 1 | Plant response rating, B. signalgrass ([13]; Rate 250 g/ha, Postemergence): 3 | Plant response rating, B. signalgrass ([13]; Rate 250 g/ha, Preemergence): 2 | Plant response rating, B. signalgrass ([13]; Rate 500 g/ha, Postemergence): 3 | Plant response rating, B. signalgrass ([13]; Rate 500 g/ha, Preemergence): 4 | Plant response rating, Sugarbeets ([14]; Rate 62 g/ha, Postemergence): 8 | Sugarbeets plant response rating ([14]; Rate 62 g/ha, Preemergence): 6 | Plant response rating, Sugarbeets ([14]; Rate 125 g/ha, Postemergence): 8 | Plant response rating, Sugarbeets ([14]; Rate 250 g/ha, Postemergence): 9 | Plant response rating, Sugarbeets ([14]; Rate 250 g/ha, Preemergence): 6 | Plant response rating, Sugarbeets ([14]; Rate 500 g/ha, Postemergence): 9 | Plant response rating, Sugarbeets ([14]; Rate 500 g/ha, Preemergence): 10
